The test has as its system BHK cells. Put plainly: Protein in vitro expression ability of eGFP mRNA lipid nanoparticle compositions in BHK cells by flow cytometer. The test is classed as cell-based. The conditions noted are these: 24-hour co-incubation, MC3 LNP without mRNA set as 0; for Fluorescent protein expression rate (0.1 μg): 0.1 μg LNP composition with eGFP mRNA; for Fluorescent protein expression rate (0.5 μg): 0.5 μg LNP composition with eGFP mRNA. The method, then:
BHK cells were from ATCC and maintained at 37° C. under 5% CO2 in Dulbecco's modified Eagle medium (HyClone) supplemented with 10% fetal bovine serum (HyClone). 0.1 μg or 0.5 μg of the lipid nanoparticle composition prepared by the ionizable lipid compound of the invention or the commercial MC3 nanoparticle composition was co-incubated with the BHK cells to deliver the mRNA nucleic acid encoding the enhanced green fluorescent protein contained therein into the BHK cells to express the corresponding protein. After 24-hour co-incubation, the cells were digested with trypsin and collected, and signal intensity of intracellular green fluorescent protein was collected using a flow cytometer. Analysis of relative protein expression rates was performed using a cell group to which the commercial MC3 nanoparticle composition not containing mRNA encoding enhanced green fluorescent protein was added as a control.
The fluorescence intensity obtained after the commercial MC3 nanoparticle composition not containing mRNA encoding enhanced green fluorescent protein was co-incubated with cells is set as the base point, with the green fluorescent protein expression rate being 0.
(In general: Flow cytometry measures light scatter and fluorescence of single cells or particles in a stream.)

As to `CCCCC/C=C\C/C=C\CCCCCCCCC(CCCCCCCC/C=C\C/C=C\CCCCC)OC(=O)CCCN(C)C` [MC3, Dlin-MC3-DMA], the “Fluorescent protein expression rate (0.1 μg)” value came to 95.87% and the “Fluorescent protein expression rate (0.5 μg)” value came out at 99.99%.
On to `CCCCCCCCCOC(=O)CCCCCCCOc1ccc(OCCCCCCCC(=O)OCCCCCCCCC)c(COC(=O)CCCN(C)C)c1` [Compound I], for which the “Fluorescent protein expression rate (0.1 μg)” value came to 82.60% and the “Fluorescent protein expression rate (0.5 μg)” value came to 93.51%.
